From the CheMixHub viscosity set
± gives the uncertainty stated by the source.

Assay: xn = mol fraction of the nth substance listed

**Q.** With `CCCCCCCCCCO` + CC#N as the compound, how does the viscosity (298.15 K, 101 kPa, x2 = 0.0939) read?
**A.** 8.794 ± 0.65 mPa·s

**Q.** And the viscosity (298.15 K, 101 kPa, x2 = 0.2005)?
**A.** 6.554 ± 0.52 mPa·s

**Q.** And the viscosity (298.15 K, 101 kPa, x2 = 0.301)?
**A.** 4.932 ± 0.42 mPa·s

**Q.** What about the viscosity (298.15 K, 101 kPa, x2 = 0.3902) of the same compound?
**A.** 3.872 ± 0.33 mPa·s

**Q.** And the viscosity (298.15 K, 101 kPa, x2 = 0.4935)?
**A.** 2.848 ± 0.25 mPa·s

**Q.** What about the viscosity (298.15 K, 101 kPa, x2 = 0.6249) of the same compound?
**A.** 1.83 ± 0.16 mPa·s

**Q.** What about the viscosity (298.15 K, 101 kPa, x2 = 0.7216) of the same compound?
**A.** 1.302 ± 0.12 mPa·s

**Q.** And the viscosity (298.15 K, 101 kPa, x2 = 0.7933)?
**A.** 1.021 ± 0.097 mPa·s

**Q.** And the viscosity (298.15 K, 101 kPa, x2 = 0.8544)?
**A.** 0.79 ± 0.078 mPa·s

**Q.** What about the viscosity (298.15 K, 101 kPa, x2 = 0.9006) of the same compound?
**A.** 0.548 ± 0.058 mPa·s

**Q.** What about the viscosity (298.15 K, 101 kPa, x2 = 0.9382) of the same compound?
**A.** 0.46 ± 0.051 mPa·s

**Q.** And the viscosity (298.15 K, 101 kPa, x2 = 0.9708)?
**A.** 0.395 ± 0.045 mPa·s

**Q.** And the viscosity (303.15 K, 101 kPa, x2 = 0.0939)?
**A.** 7.622 ± 0.58 mPa·s

**Q.** What about the viscosity (303.15 K, 101 kPa, x2 = 0.2005) of the same compound?
**A.** 5.66 ± 0.46 mPa·s

**Q.** And the viscosity (303.15 K, 101 kPa, x2 = 0.301)?
**A.** 4.226 ± 0.36 mPa·s

**Q.** And the viscosity (303.15 K, 101 kPa, x2 = 0.3902)?
**A.** 3.394 ± 0.29 mPa·s

**Q.** What about the viscosity (303.15 K, 101 kPa, x2 = 0.4935) of the same compound?
**A.** 2.467 ± 0.22 mPa·s

**Q.** And the viscosity (303.15 K, 101 kPa, x2 = 0.6249)?
**A.** 1.678 ± 0.15 mPa·s

**Q.** What about the viscosity (303.15 K, 101 kPa, x2 = 0.7216) of the same compound?
**A.** 1.189 ± 0.11 mPa·s

**Q.** And the viscosity (303.15 K, 101 kPa, x2 = 0.7933)?
**A.** 0.864 ± 0.084 mPa·s

**Q.** And the viscosity (303.15 K, 101 kPa, x2 = 0.8544)?
**A.** 0.636 ± 0.065 mPa·s

**Q.** What about the viscosity (303.15 K, 101 kPa, x2 = 0.9006) of the same compound?
**A.** 0.51 ± 0.055 mPa·s

**Q.** What about the viscosity (303.15 K, 101 kPa, x2 = 0.9382) of the same compound?
**A.** 0.431 ± 0.048 mPa·s

**Q.** And the viscosity (303.15 K, 101 kPa, x2 = 0.9708)?
**A.** 0.379 ± 0.044 mPa·s

**Q.** And the viscosity (308.15 K, 101 kPa, x2 = 0.0939)?
**A.** 6.471 ± 0.51 mPa·s

**Q.** And the viscosity (308.15 K, 101 kPa, x2 = 0.2005)?
**A.** 4.934 ± 0.42 mPa·s

**Q.** And the viscosity (308.15 K, 101 kPa, x2 = 0.301)?
**A.** 3.648 ± 0.31 mPa·s

**Q.** And the viscosity (308.15 K, 101 kPa, x2 = 0.3902)?
**A.** 2.877 ± 0.25 mPa·s

**Q.** What about the viscosity (308.15 K, 101 kPa, x2 = 0.4935) of the same compound?
**A.** 2.15 ± 0.19 mPa·s

**Q.** And the viscosity (308.15 K, 101 kPa, x2 = 0.6249)?
**A.** 1.441 ± 0.13 mPa·s

**Q.** And the viscosity (308.15 K, 101 kPa, x2 = 0.7216)?
**A.** 1.053 ± 0.1 mPa·s

**Q.** What about the viscosity (308.15 K, 101 kPa, x2 = 0.7933) of the same compound?
**A.** 0.777 ± 0.077 mPa·s

**Q.** And the viscosity (308.15 K, 101 kPa, x2 = 0.8544)?
**A.** 0.586 ± 0.061 mPa·s

**Q.** And the viscosity (308.15 K, 101 kPa, x2 = 0.9006)?
**A.** 0.479 ± 0.052 mPa·s

**Q.** What about the viscosity (308.15 K, 101 kPa, x2 = 0.9382) of the same compound?
**A.** 0.411 ± 0.046 mPa·s

**Q.** What about the viscosity (308.15 K, 101 kPa, x2 = 0.9708) of the same compound?
**A.** 0.358 ± 0.042 mPa·s

**Q.** Which results are given for `OCCOCCOCCO` + CCCC(C)O?
**A.** viscosity (293.15 K, 100 kPa, x1 = 0.0809): 4.98 ± 0.1 mPa·s; viscosity (293.15 K, 100 kPa, x1 = 0.16): 6.16 ± 0.13 mPa·s; viscosity (293.15 K, 100 kPa, x1 = 0.2401): 7.62 ± 0.16 mPa·s; viscosity (293.15 K, 100 kPa, x1 = 0.35): 10.23 ± 0.21 mPa·s; viscosity (293.15 K, 100 kPa, x1 = 0.44): 12.89 ± 0.27 mPa·s; viscosity (293.15 K, 100 kPa, x1 = 0.5601): 17.73 ± 0.37 mPa·s; viscosity (293.15 K, 100 kPa, x1 = 0.6499): 22.03 ± 0.46 mPa·s; viscosity (293.15 K, 100 kPa, x1 = 0.7401): 27.33 ± 0.57 mPa·s; viscosity (293.15 K, 100 kPa, x1 = 0.8501): 34.9 ± 0.73 mPa·s; viscosity (293.15 K, 100 kPa, x1 = 0.9401): 42.55 ± 0.89 mPa·s; viscosity (298.15 K, 100 kPa, x1 = 0.0809): 4.35 ± 0.09 mPa·s; viscosity (298.15 K, 100 kPa, x1 = 0.16): 5.48 ± 0.11 mPa·s; viscosity (298.15 K, 100 kPa, x1 = 0.2401): 6.71 ± 0.14 mPa·s; viscosity (298.15 K, 100 kPa, x1 = 0.35): 8.84 ± 0.18 mPa·s; viscosity (298.15 K, 100 kPa, x1 = 0.44): 10.83 ± 0.23 mPa·s; viscosity (298.15 K, 100 kPa, x1 = 0.5601): 14.35 ± 0.3 mPa·s; viscosity (298.15 K, 100 kPa, x1 = 0.6499): 17.55 ± 0.37 mPa·s; viscosity (298.15 K, 100 kPa, x1 = 0.7401): 21.36 ± 0.45 mPa·s; viscosity (298.15 K, 100 kPa, x1 = 0.8501): 27.16 ± 0.57 mPa·s; viscosity (298.15 K, 100 kPa, x1 = 0.9401): 32.88 ± 0.69 mPa·s; viscosity (303.15 K, 100 kPa, x1 = 0.0809): 3.57 ± 0.08 mPa·s; viscosity (303.15 K, 100 kPa, x1 = 0.16): 4.56 ± 0.1 mPa·s; viscosity (303.15 K, 100 kPa, x1 = 0.2401): 5.62 ± 0.12 mPa·s; viscosity (303.15 K, 100 kPa, x1 = 0.35): 7.33 ± 0.15 mPa·s; viscosity (303.15 K, 100 kPa, x1 = 0.44): 8.95 ± 0.19 mPa·s; viscosity (303.15 K, 100 kPa, x1 = 0.5601): 11.76 ± 0.25 mPa·s; viscosity (303.15 K, 100 kPa, x1 = 0.6499): 14.33 ± 0.3 mPa·s; viscosity (303.15 K, 100 kPa, x1 = 0.7401): 17.37 ± 0.36 mPa·s; viscosity (303.15 K, 100 kPa, x1 = 0.8501): 21.79 ± 0.46 mPa·s; viscosity (303.15 K, 100 kPa, x1 = 0.9401): 26.06 ± 0.54 mPa·s; viscosity (308.15 K, 100 kPa, x1 = 0.0809): 3.03 ± 0.06 mPa·s; viscosity (308.15 K, 100 kPa, x1 = 0.16): 3.84 ± 0.08 mPa·s; viscosity (308.15 K, 100 kPa, x1 = 0.2401): 4.79 ± 0.1 mPa·s; viscosity (308.15 K, 100 kPa, x1 = 0.35): 6.2 ± 0.13 mPa·s; viscosity (308.15 K, 100 kPa, x1 = 0.44): 7.55 ± 0.16 mPa·s; viscosity (308.15 K, 100 kPa, x1 = 0.5601): 9.77 ± 0.2 mPa·s; viscosity (308.15 K, 100 kPa, x1 = 0.6499): 11.78 ± 0.25 mPa·s; viscosity (308.15 K, 100 kPa, x1 = 0.7401): 14.16 ± 0.3 mPa·s; viscosity (308.15 K, 100 kPa, x1 = 0.8501): 17.58 ± 0.37 mPa·s; viscosity (308.15 K, 100 kPa, x1 = 0.9401): 21.01 ± 0.44 mPa·s; viscosity (313.15 K, 100 kPa, x1 = 0.0809): 2.48 ± 0.05 mPa·s; viscosity (313.15 K, 100 kPa, x1 = 0.16): 3.16 ± 0.07 mPa·s; viscosity (313.15 K, 100 kPa, x1 = 0.2401): 3.93 ± 0.08 mPa·s; viscosity (313.15 K, 100 kPa, x1 = 0.35): 5.1 ± 0.11 mPa·s; viscosity (313.15 K, 100 kPa, x1 = 0.44): 6.26 ± 0.13 mPa·s; viscosity (313.15 K, 100 kPa, x1 = 0.5601): 8.19 ± 0.17 mPa·s; viscosity (313.15 K, 100 kPa, x1 = 0.6499): 9.89 ± 0.21 mPa·s; viscosity (313.15 K, 100 kPa, x1 = 0.7401): 11.86 ± 0.25 mPa·s; viscosity (313.15 K, 100 kPa, x1 = 0.8501): 14.62 ± 0.31 mPa·s; viscosity (313.15 K, 100 kPa, x1 = 0.9401): 17.22 ± 0.36 mPa·s; viscosity (318.15 K, 100 kPa, x1 = 0.0809): 2.24 ± 0.05 mPa·s; viscosity (318.15 K, 100 kPa, x1 = 0.16): 2.86 ± 0.06 mPa·s; viscosity (318.15 K, 100 kPa, x1 = 0.2401): 3.49 ± 0.07 mPa·s; viscosity (318.15 K, 100 kPa, x1 = 0.35): 4.48 ± 0.09 mPa·s; viscosity (318.15 K, 100 kPa, x1 = 0.44): 5.4 ± 0.11 mPa·s; viscosity (318.15 K, 100 kPa, x1 = 0.5601): 6.92 ± 0.14 mPa·s; viscosity (318.15 K, 100 kPa, x1 = 0.6499): 8.23 ± 0.17 mPa·s; viscosity (318.15 K, 100 kPa, x1 = 0.7401): 9.81 ± 0.21 mPa·s; viscosity (318.15 K, 100 kPa, x1 = 0.8501): 12.04 ± 0.25 mPa·s; viscosity (318.15 K, 100 kPa, x1 = 0.9401): 14.18 ± 0.3 mPa·s; viscosity (323.15 K, 100 kPa, x1 = 0.0809): 1.94 ± 0.04 mPa·s; viscosity (323.15 K, 100 kPa, x1 = 0.16): 2.47 ± 0.05 mPa·s; viscosity (323.15 K, 100 kPa, x1 = 0.2401): 3.03 ± 0.06 mPa·s; viscosity (323.15 K, 100 kPa, x1 = 0.35): 3.87 ± 0.08 mPa·s; viscosity (323.15 K, 100 kPa, x1 = 0.44): 4.64 ± 0.1 mPa·s; viscosity (323.15 K, 100 kPa, x1 = 0.5601): 5.92 ± 0.12 mPa·s; viscosity (323.15 K, 100 kPa, x1 = 0.6499): 6.99 ± 0.15 mPa·s; viscosity (323.15 K, 100 kPa, x1 = 0.7401): 8.27 ± 0.17 mPa·s; viscosity (323.15 K, 100 kPa, x1 = 0.8501): 10.15 ± 0.21 mPa·s; viscosity (323.15 K, 100 kPa, x1 = 0.9401): 11.91 ± 0.25 mPa·s
